# Reference: ChEMBL document CHEMBL5376020, “Synthesis and evaluation of WK-X-34 derivatives as P-glycoprotein (P-gp/ABCB1) inhibitors for reversing multidrug resistance” (RSC Med Chem, 2024)
# Activity calls are given as the source filed them. No cut-off for these calls is given here.
# What was measured:
# SW-620 [1] = assay: Reversal fold, ratio of Doxorubicin IC50 to test compound IC50 for reversal of doxorubicin-induced multi-drug resistance in human SW620 cells measured after 48 hrs by CCK-8 method; format: functional
# SW620/AD300 [2] = assay: Reversal of doxorubicin-induced multidrug resistance in human SW620/AD300 cells measured after 48 hrs by CCK-8 method; format: functional, cell-based; settings: SW620/AD300, 48 h
# SW620/AD300 [3] = assay: Reversal fold, ratio of Doxorubicin IC50 to test compound IC50 for reversal of doxorubicin-induced multi-drug resistance in human SW620/AD300 cells measured after 48 hrs by CCK-8 method; format: functional
# SW-620 [4] = assay: Reversal of doxorubicin-induced multidrug resistance in human SW620 cells measured after 48 hrs by CCK-8 method; format: functional, cell-based; settings: SW-620, 48 h
# [5] = Octanol/water partition coefficient, log P of the compound; format: physicochemical
# SW620/AD300 [6] = assay: Induction of doxorubicin induced apoptosis in human SW620/AD300 cells assessed as necrotic cells at 5 uM incubated for 48 hrs in presence of doxorubicin by annexin V-FITC and PI staining based flow cytometry analysis (reference value: 0.59%); format: functional
# SW-620 [7] = assay: Cytotoxicity against human SW620 cells assessed as cell mortality rate at 5 uM measured after 48 hrs by CCK-8 method relative to control; format: functional
# SW620/AD300 [8] = assay: Induction of doxorubicin induced apoptosis in human SW620/AD300 cells assessed as early apoptotic cells at 5 uM incubated for 48 hrs in presence of doxorubicin by annexin V-FITC and PI staining based flow cytometry analysis (reference value: 4.55%); format: functional
# [9] = molecular target: ATP-dependent translocase ABCB1 (Homo sapiens, UniProt P08183); assay: Inhibition of P-gp efflux in human SW620/AD300 cells assessed as increase in accumulation of Rh123 by measuring fluorescence intensity at 5.0 uM incubated for 4 hrs followed by Rh123 addition measured after 30 mins by flow cytometric analysis; format: cell-based; settings: sw620/ad300, 4.5 h
# Sequence of ATP-dependent translocase ABCB1 (P08183 whole entry): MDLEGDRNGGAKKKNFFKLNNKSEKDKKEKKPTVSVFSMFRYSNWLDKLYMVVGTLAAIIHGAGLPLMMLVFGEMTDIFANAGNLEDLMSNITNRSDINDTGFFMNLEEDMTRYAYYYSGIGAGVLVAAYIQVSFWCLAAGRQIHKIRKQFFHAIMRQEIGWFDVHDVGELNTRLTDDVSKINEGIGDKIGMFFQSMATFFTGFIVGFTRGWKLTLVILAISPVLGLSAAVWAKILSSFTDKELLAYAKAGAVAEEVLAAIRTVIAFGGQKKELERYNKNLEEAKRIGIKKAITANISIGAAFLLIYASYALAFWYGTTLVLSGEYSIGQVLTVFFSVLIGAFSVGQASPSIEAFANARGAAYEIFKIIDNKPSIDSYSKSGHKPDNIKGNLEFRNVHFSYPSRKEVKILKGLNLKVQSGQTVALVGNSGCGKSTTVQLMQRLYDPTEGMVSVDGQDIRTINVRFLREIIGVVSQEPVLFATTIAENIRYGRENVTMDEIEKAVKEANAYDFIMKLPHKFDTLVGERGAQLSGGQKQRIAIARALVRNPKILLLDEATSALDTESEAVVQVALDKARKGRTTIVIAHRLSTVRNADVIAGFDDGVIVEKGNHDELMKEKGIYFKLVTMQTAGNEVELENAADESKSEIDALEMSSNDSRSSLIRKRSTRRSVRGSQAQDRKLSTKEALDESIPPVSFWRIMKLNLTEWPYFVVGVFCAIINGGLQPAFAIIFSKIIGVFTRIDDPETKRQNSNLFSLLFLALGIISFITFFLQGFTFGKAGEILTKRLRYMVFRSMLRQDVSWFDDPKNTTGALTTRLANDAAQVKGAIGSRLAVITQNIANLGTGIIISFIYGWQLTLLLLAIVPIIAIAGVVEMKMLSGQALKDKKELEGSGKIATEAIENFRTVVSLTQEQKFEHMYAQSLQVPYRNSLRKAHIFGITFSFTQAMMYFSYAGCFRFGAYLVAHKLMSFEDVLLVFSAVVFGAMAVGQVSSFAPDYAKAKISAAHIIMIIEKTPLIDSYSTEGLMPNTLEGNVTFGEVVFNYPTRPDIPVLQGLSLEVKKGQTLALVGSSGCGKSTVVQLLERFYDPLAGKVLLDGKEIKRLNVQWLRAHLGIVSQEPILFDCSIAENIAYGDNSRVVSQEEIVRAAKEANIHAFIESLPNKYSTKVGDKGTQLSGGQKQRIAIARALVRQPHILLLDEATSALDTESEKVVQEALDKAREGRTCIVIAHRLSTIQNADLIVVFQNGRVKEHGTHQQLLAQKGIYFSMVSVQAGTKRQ
# SW620/AD300 [10] = assay: Induction of doxorubicin induced apoptosis in human SW620/AD300 cells assessed as viable cells at 5 uM incubated for 48 hrs in presence of doxorubicin by annexin V-FITC and PI staining based flow cytometry analysis (reference value: 92.8%); format: functional; settings: read-out: Activity
# SW620/AD300 [11] = assay: Induction of doxorubicin induced apoptosis in human SW620/AD300 cells assessed as late apoptotic cells at 5 uM incubated for 48 hrs in presence of doxorubicin by annexin V-FITC and PI staining based flow cytometry analysis (reference value: 2.07%); format: functional
# SW620/AD300 [12] = assay: Cytotoxicity against human overexpressing P-gp SW620/AD300 cells assessed as cell mortality rate at 5 uM measured after 48 hrs by CCK-8 method relative to control; format: functional
# SW620/AD300 [13] = assay: Induction of doxorubicin induced apoptosis in human SW620/AD300 cells assessed as necrotic cells at 2.5 uM incubated for 48 hrs in presence of doxorubicin by annexin V-FITC and PI staining based flow cytometry analysis (reference value: 0.59%); format: functional
# SW620/AD300 [14] = assay: Downregulation of P-gp expression level in human SW620/AD300 cells at upto 50 uM measured after 24 hrs by Western blot analysis; format: functional, cell-based
# SW620/AD300 [15] = assay: Induction of doxorubicin induced apoptosis in human SW620/AD300 cells assessed as viable cells at 2.5 uM incubated for 48 hrs in presence of doxorubicin by annexin V-FITC and PI staining based flow cytometry analysis (reference value: 92.8%); format: functional; settings: read-out: Activity
# SW620/AD300 [16] = assay: Induction of doxorubicin induced apoptosis in human SW620/AD300 cells assessed as early apoptotic cells at 2.5 uM incubated for 48 hrs in presence of doxorubicin by annexin V-FITC and PI staining based flow cytometry analysis (reference value: 4.55%); format: functional
# SW620/AD300 [17] = assay: Downregulation of P-gp expression level in human SW620/AD300 cells at 5 to 10 uM measured after 24 hrs by Western blot analysis; format: functional, cell-based; settings: dose 5-10 µM
# SW620/AD300 [18] = assay: Induction of doxorubicin induced apoptosis in human SW620/AD300 cells assessed as late apoptotic cells at 2.5 uM incubated for 48 hrs in presence of doxorubicin by annexin V-FITC and PI staining based flow cytometry analysis (reference value: 2.07%); format: functional
# SW620/AD300 [19] = assay: Downregulation of P-gp expression level in human SW620/AD300 cells at 2 to 5 uM measured after 24 hrs by qPCR analysis; format: functional, cell-based; settings: dose 2-5 µM
SMILES,Ratio IC50 (SW-620 [1]),IC50 (SW620/AD300 [2]) [nM],Ratio IC50 (SW620/AD300 [3]),IC50 (SW-620 [4]) [nM],logP [5],Activity (SW620/AD300 [6]) [%],mortality at 5 µM (SW-620 [7]) [%],Activity (SW620/AD300 [8]) [%],inhibition (INH) [9],viability at 5 µM (SW620/AD300 [10]) [%],Activity (SW620/AD300 [11]) [%],mortality at 5 µM (SW620/AD300 [12]) [%],Activity (SW620/AD300 [13]) [%],Activity (SW620/AD300 [14]),viability at 2.5 µM (SW620/AD300 [15]) [%],Activity (SW620/AD300 [16]) [%],Activity (SW620/AD300 [17]),Activity (SW620/AD300 [18]) [%],Activity (SW620/AD300 [19])
COc1cc2c(cc1OC)CN(CCc1ccc(NC(=O)c3ccccc3NC(=O)c3ccc(C(=O)O)cc3)cc1)CC2,0.7,7540,1.4,376,3.16,–,–,–,–,–,–,–,–,–,–,–,–,–,–
COc1cccc2c1C(=O)c1c(O)c3c(c(O)c1C2=O)C[C@@](O)(C(=O)CO)C[C@@H]3O[C@H]1C[C@H](N)[C@H](O)[C@H](C)O1 [DOXORUBICIN],1,10500,1,256,–,–,–,–,–,–,–,–,–,–,–,–,–,–,–
COc1ccc(C(=O)Nc2ccccc2C(=O)Nc2ccc(CCN3CCc4cc(OC)c(OC)cc4C3)cc2)cc1OC,4,223,45.9,63,5.85,0.56,9,38.5,Active,57.3,3.62,9,–,–,–,–,–,–,–
COc1cc2c(cc1OC)CN(CCc1ccc(NC(=O)c3ccccc3NC(=O)c3ccc(NC(=O)CC45CC6CC(CC(C6)C4)C5)cc3)cc1)CC2,0.5,498,21.1,489,8.48,–,< 6,–,–,–,–,< 6,–,–,–,–,–,–,–
COc1cc2c(cc1OC)CN(CCc1ccc(NC(=O)c3ccccc3NC(=O)CCNC(=O)CC34CC5CC(CC(C5)C3)C4)cc1)CC2,0.7,379,27.7,342,6.89,–,< 6,–,–,–,–,< 6,–,–,–,–,–,–,–
COc1cc2c(cc1OC)CN(CCc1ccc(NC(=O)c3ccccc3NC(=O)C34CC5CC(CC(C5)C3)C4)cc1)CC2,1.8,671,15.7,144,6.83,0.29,< 2,36.1,Active,59.2,4.45,< 2,0.08,Active,76.3,22.7,inactive,0.96,inactive
COc1cc2c(cc1OC)CN(CCc1ccc(NC(=O)c3ccccc3NC(=O)c3ccccc3N)cc1)CC2,1.1,719,14.6,229,5.78,–,–,–,–,–,–,–,–,–,–,–,–,–,–
COc1cc2c(cc1OC)CN(CCc1ccc(NC(=O)c3ccccc3NC(=O)c3ccc(N)cc3)cc1)CC2,1.5,663,15.9,173,5.23,–,–,–,–,–,–,–,–,–,–,–,–,–,–
COC(=O)c1ccc(C(=O)Nc2ccccc2C(=O)Nc2ccc(CCN3CCc4cc(OC)c(OC)cc4C3)cc2)cc1,1.9,1010,10.4,136,5.77,–,–,–,–,–,–,–,–,–,–,–,–,–,–
COc1ccc(CCN(C)CCCC(C#N)(c2ccc(OC)c(OC)c2)C(C)C)cc1OC (stereo not given) [VERAPAMIL],–,–,–,142,–,–,–,–,–,–,–,–,–,–,–,–,–,–,–
COc1cc2c(cc1OC)CN(CCc1ccc(NC(=O)c3ccccc3NC(=O)c3ccc(C(=O)N4CCN(C(=O)CC56CC7CC(CC(C7)C5)C6)CC4)cc3)cc1)CC2,1.9,134,78.6,137,8.04,1.17,< 2,52.1,Active,42.1,5.15,< 2,0.22,inactive,47.8,50.8,inactive,1.16,inactive
COc1cc2c(cc1OC)CN(CCc1ccc(NC(=O)c3ccccc3NC(=O)CC34CC5CC(CC(C5)C3)C4)cc1)CC2,0.9,205,51.4,284,7.65,1.13,< 2,24.7,Active,70.2,3.93,< 2,0.29,inactive,78.9,17.7,inactive,3.15,inactive
COc1cc2c(cc1OC)CN(CCc1ccc(NC(=O)c3ccccc3NC(=O)c3ccc(C(=O)NCCNC(=O)CC45CC6CC(CC(C6)C4)C5)cc3)cc1)CC2,1.8,807,13,138,7.9,–,< 6,–,–,–,–,< 6,–,–,–,–,–,–,–
